# Measurements published in ChEMBL document CHEMBL3885881, “DrugMatrix”.
# Organism: Rattus norvegicus
# Assay: DrugMatrix - Regimen: Daily Repeat
# Format: toxicity, organism-based, Sprague-Dawley
# Set-up: regimen Daily Repeat, gender Male, age 6-8 weeks
# Settings: in vivo, po, route oral GAVAGE, vehicle 100 % WATER; for ABSOLUTE BASOPHIL / ABSOLUTE EOSINOPHIL / ABSOLUTE LYMPHOCYTE / ABSOLUTE MONOCYTE / ABSOLUTE SEGMENTED NEUTROPHIL / BASOPHIL / EOSINOPHIL / ERYTHROCYTE COUNT / HEMATOCRIT / HEMOGLOBIN / LEUKOCYTE COUNT / LYMPHOCYTE / MEAN CORPUSCULAR HEMOGLOBIN / MEAN CORPUSCULAR HEMOGLOBIN CONCENTRATION / MEAN CORPUSCULAR VOLUME / MONOCYTE / NEUTROPHIL / NUCLEATED RED BLOOD CELLS / PLATELET COUNT: tissue Blood; for ALANINE AMINOTRANSFERASE / ALBUMIN / ALKALINE PHOSPHATASE / ASPARTATE AMINOTRANSFERASE / BLOOD UREA NITROGEN / CARBON DIOXIDE / CHLORIDE / CHOLESTEROL / CREATINE PHOSPHOKINASE / CREATININE / GLUCOSE / LACTATE DEHYDROGENASE / LIPASE / PHOSPHORUS / POTASSIUM / SODIUM / TOTAL BILIRUBIN / TOTAL PROTEIN / URIC ACID: tissue Plasma
# [1] = 27 mg/kg, 72 h, dose level High, time 3 day
# [2] = 27 mg/kg, 120 h, dose level High, time 5 day
# [3] = […], 72 h, dose 2.7 mg/Kg, dose level Low, time 3 day
# [4] = […], 120 h, dose 2.7 mg/Kg, dose level Low, time 5 day
compound,measurement,setting,value
NNCCc1ccccc1 [PHENELZINE],ABSOLUTE BASOPHIL,[1],0 CELLS/uL
same,ABSOLUTE EOSINOPHIL,[1],54.67 CELLS/uL
same,ABSOLUTE LYMPHOCYTE,[1],7424 CELLS/uL
same,ABSOLUTE MONOCYTE,[1],106.67 CELLS/uL
same,ABSOLUTE SEGMENTED NEUTROPHIL,[1],481.33 CELLS/uL
same,BASOPHIL,[1],0%
same,EOSINOPHIL,[1],0.67%
same,ERYTHROCYTE COUNT,[1],5.49 x10E6/uL
same,HEMATOCRIT,[1],35.1%
same,HEMOGLOBIN,[1],14.03 G/DL
same,LEUKOCYTE COUNT,[1],8.07 x10E3/uL
same,LYMPHOCYTE,[1],92%
same,MEAN CORPUSCULAR HEMOGLOBIN,[1],25.57 pg
same,MEAN CORPUSCULAR HEMOGLOBIN CONCENTRATION,[1],39.97 G/DL
same,MEAN CORPUSCULAR VOLUME,[1],63.93 fL
same,MONOCYTE,[1],1.33%
same,NEUTROPHIL,[1],6%
same,NUCLEATED RED BLOOD CELLS,[1],0 /100WBC
same,PLATELET COUNT,[1],1341.67 x10E3/uL
same,ALANINE AMINOTRANSFERASE,[1],25.67 u/L
same,ALBUMIN,[1],4.5 G/DL
same,ALKALINE PHOSPHATASE,[1],356.33 u/L
same,ASPARTATE AMINOTRANSFERASE,[1],75.67 u/L
same,BLOOD UREA NITROGEN,[1],16.67 mg/dL
same,CARBON DIOXIDE,[1],31 mmol/L
same,CHLORIDE,[1],102.33 MEQ/L
same,CHOLESTEROL,[1],78.33 mg/dL
same,CREATINE PHOSPHOKINASE,[1],265 u/L
same,CREATININE,[1],0.16 mg/dL
same,GLUCOSE,[1],143 mg/dL
same,LACTATE DEHYDROGENASE,[1],131.33 u/L
same,LIPASE,[1],9.33 u/L
same,PHOSPHORUS,[1],11.73 mg/dL
same,POTASSIUM,[1],6.74 MEQ/L
same,SODIUM,[1],145.43 MEQ/L
same,TOTAL BILIRUBIN,[1],0.23 mg/dL
same,TOTAL PROTEIN,[1],6.07 G/DL
same,URIC ACID,[1],1.23 mg/dL
same,ABSOLUTE BASOPHIL,[2],0 CELLS/uL
same,ABSOLUTE EOSINOPHIL,[2],69.33 CELLS/uL
same,ABSOLUTE LYMPHOCYTE,[2],8987.33 CELLS/uL
same,ABSOLUTE MONOCYTE,[2],88.33 CELLS/uL
same,ABSOLUTE SEGMENTED NEUTROPHIL,[2],388.33 CELLS/uL
same,BASOPHIL,[2],0%
same,EOSINOPHIL,[2],0.67%
same,ERYTHROCYTE COUNT,[2],6.17 x10E6/uL
same,HEMATOCRIT,[2],39.07%
same,HEMOGLOBIN,[2],15.3 G/DL
same,LEUKOCYTE COUNT,[2],9.53 x10E3/uL
same,LYMPHOCYTE,[2],94.33%
same,MEAN CORPUSCULAR HEMOGLOBIN,[2],24.8 pg
same,MEAN CORPUSCULAR HEMOGLOBIN CONCENTRATION,[2],39.17 G/DL
same,MEAN CORPUSCULAR VOLUME,[2],63.33 fL
same,MONOCYTE,[2],1%
same,NEUTROPHIL,[2],4%
same,NUCLEATED RED BLOOD CELLS,[2],0 /100WBC
same,PLATELET COUNT,[2],1357.33 x10E3/uL
same,ALANINE AMINOTRANSFERASE,[2],18.67 u/L
same,ALBUMIN,[2],4.37 G/DL
same,ALKALINE PHOSPHATASE,[2],271 u/L
same,ASPARTATE AMINOTRANSFERASE,[2],103.33 u/L
same,BLOOD UREA NITROGEN,[2],26 mg/dL
same,CARBON DIOXIDE,[2],23 mmol/L
same,CHLORIDE,[2],110 MEQ/L
same,CHOLESTEROL,[2],68.33 mg/dL
same,CREATINE PHOSPHOKINASE,[2],320.33 u/L
same,CREATININE,[2],0.2 mg/dL
same,GLUCOSE,[2],155 mg/dL
same,LACTATE DEHYDROGENASE,[2],594.67 u/L
same,LIPASE,[2],10 u/L
same,PHOSPHORUS,[2],11.2 mg/dL
same,POTASSIUM,[2],5.16 MEQ/L
same,SODIUM,[2],150.7 MEQ/L
same,TOTAL BILIRUBIN,[2],0.17 mg/dL
same,TOTAL PROTEIN,[2],6 G/DL
same,URIC ACID,[2],1.43 mg/dL
same,ABSOLUTE BASOPHIL,[3],0 CELLS/uL
same,ABSOLUTE EOSINOPHIL,[3],60.67 CELLS/uL
same,ABSOLUTE LYMPHOCYTE,[3],9104.67 CELLS/uL
same,ABSOLUTE MONOCYTE,[3],151.67 CELLS/uL
same,ABSOLUTE SEGMENTED NEUTROPHIL,[3],949.67 CELLS/uL
same,BASOPHIL,[3],0%
same,EOSINOPHIL,[3],0.67%
same,ERYTHROCYTE COUNT,[3],5.11 x10E6/uL
same,HEMATOCRIT,[3],32.4%
same,HEMOGLOBIN,[3],12.97 G/DL
same,LEUKOCYTE COUNT,[3],10.27 x10E3/uL
same,LYMPHOCYTE,[3],88%
same,MEAN CORPUSCULAR HEMOGLOBIN,[3],25.37 pg
same,MEAN CORPUSCULAR HEMOGLOBIN CONCENTRATION,[3],40.03 G/DL
same,MEAN CORPUSCULAR VOLUME,[3],63.37 fL
same,MONOCYTE,[3],1.67%
same,NEUTROPHIL,[3],9.67%
same,NUCLEATED RED BLOOD CELLS,[3],0 /100WBC
same,PLATELET COUNT,[3],935.33 x10E3/uL
same,ALANINE AMINOTRANSFERASE,[3],55.33 u/L
same,ALBUMIN,[3],4.33 G/DL
same,ALKALINE PHOSPHATASE,[3],325.33 u/L
same,ASPARTATE AMINOTRANSFERASE,[3],98 u/L
same,BLOOD UREA NITROGEN,[3],15.33 mg/dL
same,CARBON DIOXIDE,[3],33 mmol/L
same,CHLORIDE,[3],101.67 MEQ/L
same,CHOLESTEROL,[3],78.33 mg/dL
same,CREATINE PHOSPHOKINASE,[3],665.67 u/L
same,CREATININE,[3],0.17 mg/dL
same,GLUCOSE,[3],155 mg/dL
same,LACTATE DEHYDROGENASE,[3],181.67 u/L
same,LIPASE,[3],9 u/L
same,PHOSPHORUS,[3],12.03 mg/dL
same,POTASSIUM,[3],6.23 MEQ/L
same,SODIUM,[3],144.83 MEQ/L
same,TOTAL BILIRUBIN,[3],0.17 mg/dL
same,TOTAL PROTEIN,[3],5.93 G/DL
same,URIC ACID,[3],1.23 mg/dL
same,ABSOLUTE BASOPHIL,[4],0 CELLS/uL
same,ABSOLUTE EOSINOPHIL,[4],42 CELLS/uL
same,ABSOLUTE LYMPHOCYTE,[4],10324 CELLS/uL
same,ABSOLUTE MONOCYTE,[4],37 CELLS/uL
same,ABSOLUTE SEGMENTED NEUTROPHIL,[4],997 CELLS/uL
same,BASOPHIL,[4],0%
same,EOSINOPHIL,[4],0.33%
same,ERYTHROCYTE COUNT,[4],5.61 x10E6/uL
same,HEMATOCRIT,[4],36.03%
same,HEMOGLOBIN,[4],14.1 G/DL
same,LEUKOCYTE COUNT,[4],11.4 x10E3/uL
same,LYMPHOCYTE,[4],90.67%
same,MEAN CORPUSCULAR HEMOGLOBIN,[4],25.13 pg
same,MEAN CORPUSCULAR HEMOGLOBIN CONCENTRATION,[4],39.2 G/DL
same,MEAN CORPUSCULAR VOLUME,[4],64.23 fL
same,MONOCYTE,[4],0.33%
same,NEUTROPHIL,[4],8.67%
same,NUCLEATED RED BLOOD CELLS,[4],0 /100WBC
same,PLATELET COUNT,[4],1075 x10E3/uL
same,ALANINE AMINOTRANSFERASE,[4],41.33 u/L
same,ALBUMIN,[4],4.57 G/DL
same,ALKALINE PHOSPHATASE,[4],403 u/L
same,ASPARTATE AMINOTRANSFERASE,[4],105.67 u/L
same,BLOOD UREA NITROGEN,[4],21.67 mg/dL
same,CARBON DIOXIDE,[4],25.67 mmol/L
same,CHLORIDE,[4],101.67 MEQ/L
same,CHOLESTEROL,[4],67 mg/dL
same,CREATINE PHOSPHOKINASE,[4],480.33 u/L
same,CREATININE,[4],0.33 mg/dL
same,GLUCOSE,[4],130.33 mg/dL
same,LACTATE DEHYDROGENASE,[4],623.33 u/L
same,LIPASE,[4],11.33 u/L
same,PHOSPHORUS,[4],12.7 mg/dL
same,POTASSIUM,[4],6.78 MEQ/L
same,SODIUM,[4],142.87 MEQ/L
same,TOTAL BILIRUBIN,[4],0.27 mg/dL
same,TOTAL PROTEIN,[4],6.3 G/DL
same,URIC ACID,[4],1.63 mg/dL
